Laboratory results as given in patent publication US9567322B2, “Substituted tetrahydropyrans and method of use” (AbbVie S.á.r.l., priority 2014, dated 2017).

Molecular target: T1, F508delCFTR (Homo sapiens, UniProt P13569, DEL508-508)
T1 construct: expressed in transfected cells; host or cells: CFBE41o- (CFBE41o-F508delCFTR-HRP), doxycycline-inducible
Experiment: Cell Surface Expression-Horse Radish Peroxidase (CSE-HRP) assay
Type: cell-based
Conditions: CFBE41o-F508delCFTR-HRP cells; for EC50: cell surface expression, luminescence readout, 18-24 hours at 33° C., highest concentration tested 20 μM, 8-point curve; for Maximum % activity: maximum at any tested concentration, normalized to on-plate positive control (3 μM) and DMSO
Text: Cell Surface Expression-Horse Radish Peroxidase (CSE-HRP) Assay:
A cellular assay for measuring the F508delCFTR cell surface expression after correction with test compounds was developed in human lung derived epithelial cell line (CFBE41o-) (Veit G et al, (2012) Mol Biol Cell. 23(21): 4188-4202). This was achieved by expressing the F508delCFTR mutation along with a horseradish peroxidase (HRP) in the fourth exofacial loop and then measuring the HRP activity using luminescence readout from these cells, CFBE41o-F508delCFTR-HRP, that were incubated overnight with the test corrector compounds. Briefly, for this primary assay, the CFBE41o-F508delCFTR-HRP cells were plated in 384-well plates (Greiner Bio-one; Cat 781080) at 4,000 cells/well along with 0.5 μg/mL doxycycline to induce the F508delCFTR-HRP expression and further incubated at 37° C., 5% CO2 for 72 hours. The test compounds were then added at the required concentrations and further incubated for 18-24 hours at 33° C. The highest concentration tested was 20 μM with an 8-point concentration response curve using a 3-fold dilution. Three replicate plates were run to determine one EC50. All plates contained negative controls (dimethyl sulfoxide, DMSO) and positive controls (3 μM of 3-[(2R,4R)-4-({[1-(2,2-difluoro-1,3-benzodioxol-5-yl)cyclopropyl]carbonyl}amino)-7-methoxy-3,4-dihydro-2H-chromen-2-yl]benzoic acid) as well as on-plate concentration response of the positive control. Post incubation, the plates were washed 5× times with Dulbecco's phosphate buffered saline (DPBS), followed by the addition of the HRP substrate, luminol (50 μL), and measuring the HRP activity using luminescence readout on EnVision® Multilabel Plate Reader (Perkin Elmer; product number 2104-0010). The raw counts from the experiment are analyzed using Accelrys® Assay Explorer v3.3.
Z′ greater than 0.5 was used as passing quality control criteria for the plates.
The Z′ is defined as: 1−[3*SDPositive Control+3*SDNegative Control/Absolute(MeanPositive Control−MeanNegative Control)],
wherein “SD” is standard deviation.
The % activity measured at each of the 8 test concentrations of the test compound was normalized to the on-plate positive control using the following formula: % activity=[(test compound response−DMSO response)/(positive control response−DMSO response)]*100
The maximum % activity achieved for the test compound at any tested concentration is presented in Table 1 along with the EC50 calculated using the following general sigmoidal curve with variable Hill slope equation (described as Model 42 in the Accelrys® Assay Explorer v3.3 software): y=(a−d)/(1+(x/c)^b)+d General sigmoidal curve with concentration, response, top, bottom, EC50 and Hill slope.
This model describes a sigmoidal curve with an adjustable baseline, a. The equation can be used to fit curves where response is either increasing or decreasing with respect to the independent variable, “x”.
“x” is a concentration of drug under test.
“a” is the maximum response, and “d” is the minimum response
“c” is the inflection point (EC50) for the curve. That is, “y” is halfway between the lower and upper asymptotes when x=c.
“b” is the slope-factor or Hill coefficient. The sign of b is positive when the response increases with increasing dose and is negative when the response decreases with increasing dose (inhibition).

T1 sequence (P13569 with tags, fused parts or gaps DEL508-508): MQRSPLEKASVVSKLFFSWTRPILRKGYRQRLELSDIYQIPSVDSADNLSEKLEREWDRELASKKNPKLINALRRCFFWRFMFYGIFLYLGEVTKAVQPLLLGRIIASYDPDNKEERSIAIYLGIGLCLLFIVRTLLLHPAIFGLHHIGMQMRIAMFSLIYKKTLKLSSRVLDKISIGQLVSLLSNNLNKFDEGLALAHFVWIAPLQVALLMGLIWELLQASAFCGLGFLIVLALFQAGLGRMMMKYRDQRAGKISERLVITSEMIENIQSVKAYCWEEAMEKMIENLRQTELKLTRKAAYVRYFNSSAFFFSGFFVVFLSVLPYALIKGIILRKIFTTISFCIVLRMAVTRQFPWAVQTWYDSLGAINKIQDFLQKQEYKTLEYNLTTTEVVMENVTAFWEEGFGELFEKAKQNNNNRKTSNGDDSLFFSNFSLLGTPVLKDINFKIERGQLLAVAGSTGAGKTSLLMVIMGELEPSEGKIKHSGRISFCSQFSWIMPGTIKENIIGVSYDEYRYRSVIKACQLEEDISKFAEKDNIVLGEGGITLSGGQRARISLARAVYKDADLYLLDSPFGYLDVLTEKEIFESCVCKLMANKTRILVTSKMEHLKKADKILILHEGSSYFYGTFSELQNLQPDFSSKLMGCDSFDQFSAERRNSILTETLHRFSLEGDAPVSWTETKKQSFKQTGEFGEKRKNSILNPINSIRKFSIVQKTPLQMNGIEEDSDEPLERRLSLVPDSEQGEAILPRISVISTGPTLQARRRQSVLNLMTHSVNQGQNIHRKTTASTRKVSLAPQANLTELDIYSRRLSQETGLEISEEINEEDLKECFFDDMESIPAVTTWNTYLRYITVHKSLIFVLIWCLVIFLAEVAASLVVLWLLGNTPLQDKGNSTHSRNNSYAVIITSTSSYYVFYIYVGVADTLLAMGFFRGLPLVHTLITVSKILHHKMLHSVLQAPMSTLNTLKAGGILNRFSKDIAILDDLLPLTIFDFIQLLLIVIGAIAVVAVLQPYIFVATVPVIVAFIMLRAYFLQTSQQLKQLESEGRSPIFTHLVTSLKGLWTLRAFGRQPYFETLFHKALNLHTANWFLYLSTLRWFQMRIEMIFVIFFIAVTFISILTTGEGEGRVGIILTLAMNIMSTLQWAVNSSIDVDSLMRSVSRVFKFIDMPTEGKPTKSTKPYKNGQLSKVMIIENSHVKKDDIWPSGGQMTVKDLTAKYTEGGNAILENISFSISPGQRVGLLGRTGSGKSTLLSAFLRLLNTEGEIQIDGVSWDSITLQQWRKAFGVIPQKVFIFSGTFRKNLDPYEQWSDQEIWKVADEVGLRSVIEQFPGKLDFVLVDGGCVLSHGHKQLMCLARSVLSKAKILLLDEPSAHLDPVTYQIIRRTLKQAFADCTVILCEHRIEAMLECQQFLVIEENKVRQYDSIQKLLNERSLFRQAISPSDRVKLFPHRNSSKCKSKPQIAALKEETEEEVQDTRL

| SMILES | EC50 [nM] | Maximum % activity [%] | Maximum % activity (3 µM) [%] |
| --- | --- | --- | --- |
| COc1cccc([C@@H]2C[C@H](NC(=O)C3(c4ccc5c(c4)OC(F)(F)O5)CC3)C[C@H](c3cccc(C(=O)O)c3)O2)c1 (racemic) [Example 69, rac-3-[(2R,4R,6S)-4-({[1-(2,2-difluoro-1,3-benzodioxol-5-yl)cyclopropyl]carbonyl}amino)-6-(3-methoxyphenyl)tetrahydro-2H-pyran-2-yl]benzoic acid] | 420 | 85 | – |
| O=C(O)c1ccccc1[C@H]1C[C@@H](NC(=O)C2(c3ccc4c(c3)OC(F)(F)O4)CC2)CCO1 (racemic) [Example 12, rac-2-[(2R,4S)-4-({[1-(2,2-difluoro-1,3-benzodioxol-5-yl)cyclopropyl]carbonyl}amino)tetrahydro-2H-pyran-2-yl]benzoic acid] | 7630 | 108 | – |
| COC(=O)c1ccc([C@H]2C[C@@H](NC(=O)C3(c4ccc5c(c4)OC(F)(F)O5)CC3)C[C@@H](c3ccccc3)O2)c(F)c1 (racemic) [Example 63, methyl rac-4-[(2R,4S,6S)-4-({[1-(2,2-difluoro-1,3-benzodioxol-5-yl)cyclopropyl]carbonyl}amino)-6-phenyltetrahydro-2H-pyran-2-yl]-3-fluorobenzoate] | 860 | 105 | – |
| COC(=O)c1ccc([C@H]2C[C@@H](NC(=O)C3(c4ccc5c(c4)OC(F)(F)O5)CC3)C[C@@H](c3ccccc3)O2)c(C)c1 (racemic) [Example 62, methyl rac-4-[(2R,4S,6S)-4-({[1-(2,2-difluoro-1,3-benzodioxol-5-yl)cyclopropyl]carbonyl}amino)-6-phenyltetrahydro-2H-pyran-2-yl]-3-methylbenzoate] | 880 | 111 | – |
| O=C(O)c1ccc([C@@H]2C[C@H](NC(=O)C3(c4ccc5c(c4)OC(F)(F)O5)CC3)C[C@H](c3ccccc3)O2)cc1 (single isomer, unassigned) [Example 54] | 1710 | 71 | – |
| COC(=O)c1ccc([C@H]2C[C@H](NC(=O)C3(c4ccc5c(c4)OC(F)(F)O5)CC3)C[C@@H](c3ccccc3)O2)cc1 (racemic) [Example 47, methyl rac-4-[(2R,4R,6S)-4-({[1-(2,2-difluoro-1,3-benzodioxol-5-yl)cyclopropyl]carbonyl}amino)-6-phenyltetrahydro-2H-pyran-2-yl]benzoate] | 6470 | 73 | – |
| O=C(O)c1ccc([C@H]2C[C@H](NC(=O)C3(c4ccc5c(c4)OC(F)(F)O5)CC3)C[C@@H](c3ccccc3)O2)cc1 (racemic) [Example 49, rac-4-[(2R,4R,6S)-4-({[1-(2,2-difluoro-1,3-benzodioxol-5-yl)cyclopropyl]carbonyl}amino)-6-phenyltetrahydro-2H-pyran-2-yl]benzoic acid] | 3080 | 77 | – |
| Cc1cc(C(=O)O)ccc1[C@@H]1C[C@H](NC(=O)C2(c3ccc4c(c3)OC(F)(F)O4)CC2)CCO1 (stereo in doubt) [Example 42, rel-4-[(2S,4R)-4-({[1-(2,2-difluoro-1,3-benzodioxol-5-yl)cyclopropyl]carbonyl}amino)tetrahydro-2H-pyran-2-yl]-3-methylbenzoic acid] | 6870 | 36 | – |
| CC1(C)C[C@@H](NC(=O)C2(c3ccc4c(c3)OC(F)(F)O4)CC2)C[C@H](c2ccc(C(=O)O)cc2)O1 (racemic) [Example 33, rac-4-[(2R,4S)-4-({[1-(2,2-difluoro-1,3-benzodioxol-5-yl)cyclopropyl]carbonyl}amino)-6,6-dimethyltetrahydro-2H-pyran-2-yl]benzoic acid] | 3890 | 102 | – |
| O=C(N[C@H]1CCO[C@H](c2ccc(Br)cc2)C1)C1(c2ccc3c(c2)OC(F)(F)O3)CC1 [Example 21, N-[(2S,4S)-2-(4-bromophenyl)tetrahydro-2H-pyran-4-yl]-1-(2,2-difluoro-1,3-benzodioxol-5-yl)cyclopropanecarboxamide] | 7720 | 59 | – |
| O=C(O)c1ccc([C@H]2C[C@H](NC(=O)C3(c4ccc5c(c4)OC(F)(F)O5)CC3)C[C@@H](c3ccccc3)O2)c(F)c1 (racemic) [Example 61, rac-4-[(2R,4R,6S)-4-({[1-(2,2-difluoro-1,3-benzodioxol-5-yl)cyclopropyl]carbonyl}amino)-6-phenyltetrahydro-2H-pyran-2-yl]-3-fluorobenzoic acid] | 2540 | 82 | – |
| O=C(O)c1ccc(C2CC(NC(=O)C3(c4ccc5c(c4)OC(F)(F)O5)CC3)CC(C3CC3)O2)cc1 (centres unmarked) [Example 44, 4-[6-cyclopropyl-4-({[1-(2,2-difluoro-1,3-benzodioxol-5-yl)cyclopropyl]carbonyl}amino)tetrahydro-2H-pyran-2-yl]benzoic acid] | 2580 | 88 | – |
| COC(=O)c1ccc([C@@H]2C[C@@H](NC(=O)C3(c4ccc5c(c4)OC(F)(F)O5)CC3)C[C@H](c3ccc(C(=O)OC)cc3)O2)cc1 [Example 52, dimethyl rac-4,4′-[(2R,4r,6S)-4-({[1-(2,2-difluoro-1,3-benzodioxol-5-yl)cyclopropyl]carbonyl}amino)tetrahydro-2H-pyran-2,6-diyl]dibenzoate] | 1800 | 70 | – |
| Cc1cc(C(=O)O)ccc1[C@H]1C[C@H](NC(=O)C2(c3ccc4c(c3)OC(F)(F)O4)CC2)C[C@@H](c2ccccc2)O1 (racemic) [Example 64, rac-4-[(2R,4R,6S)-4-({[1-(2,2-difluoro-1,3-benzodioxol-5-yl)cyclopropyl]carbonyl}amino)-6-phenyltetrahydro-2H-pyran-2-yl]-3-methylbenzoic acid] | 2400 | – | 53 |
| CC(=O)c1cccc([C@H]2C[C@@H](NC(=O)C3(c4ccc5c(c4)OC(F)(F)O5)CC3)CCO2)c1 (racemic) [Example 8, rac-N-[(2R,4S)-2-(3-acetylphenyl)tetrahydro-2H-pyran-4-yl]-1-(2,2-difluoro-1,3-benzodioxol-5-yl)cyclopropanecarboxamide] | 1390 | 57 | – |
| COC(=O)c1cccc([C@H]2C[C@H](NC(=O)C3(c4ccc5c(c4)OC(F)(F)O5)CC3)C[C@@H](c3ccccc3)O2)c1 (racemic) [Example 22, methyl rac-3-[(2R,4R,6S)-4-({[1-(2,2-difluoro-1,3-benzodioxol-5-yl)cyclopropyl]carbonyl}amino)-6-phenyltetrahydro-2H-pyran-2-yl]benzoate] | 2180 | 63 | – |
| COc1ccc([C@H]2C[C@@H](NC(=O)C3(c4ccc5c(c4)OC(F)(F)O5)CC3)C[C@@H](c3ccc(C(=O)O)cc3)O2)cc1 (single isomer, unassigned) [Example 67] | 2410 | 54 | – |
| Cc1cc(C(=O)O)cc([C@H]2C[C@@H](NC(=O)C3(c4ccc5c(c4)OC(F)(F)O5)CC3)C[C@@H](c3ccccc3)O2)c1 (single isomer, unassigned) [Example 75] | 220 | 105 | – |
| COC(=O)c1ccc([C@H]2C[C@@H](NC(=O)C3(c4ccc5c(c4)OC(F)(F)O5)CC3)C[C@@H](c3ccc(OC)cc3)O2)cc1 (racemic) [Example 55, methyl rac-4-[(2R,4R,6S)-4-({[1-(2,2-difluoro-1,3-benzodioxol-5-yl)cyclopropyl]carbonyl}amino)-6-(4-methoxyphenyl)tetrahydro-2H-pyran-2-yl]benzoate] | 860 | 104 | – |
